Measurements taken from US12384741B2, “Lipid nanoparticle compositions for delivering circular polynucleotides” (Orna Therapeutics, Inc., priority 2021, dated 2025).

Tests used:
[1] = system: T cells, myeloid cells, B cells, and NK cells; experiment: mOX40L expression in splenic immune cells (flow cytometry); type: in vivo, C57BL/6 mice; conditions: LNP 50:10:38.5:1.5, IL:P 5.7, 1 mg/kg intravenously, 24 hours; vs Lipid 15 of Table 10f
Experimental: The ionizable lipid: helper lipid: cholesterol: PEG-lipid molar ratio of these LNPs was 50:10:38.5:1.5. Dialysis of the LNPs were performed using PBS. C57BL/6 female mice (6-8 weeks, n=4) were dosed at either LNP comprising Lipid 1 of Table 10e or the Lipid 15 of Table 10f at 1 mg/kg intravenously. At 24 hours, the spleen from the mice were collected for flow cytometry analysis. mOX40L transfection of Lipid 1 of Table 10e and Lipid 15 of Table 10f were compared in T cells, myeloid cells, B cells, and NK cells.

splenic T cells = experiment: mOX40L expression in splenic T cells; type: in vivo, C57BL/6 mice; conditions: 1 mg/kg intravenously, 24 hours; IL:P 5.7, 50:10:38.5:1.5
Experimental: The ionizable lipid: helper lipid: cholesterol: PEG-lipid molar ratio of these LNPs was 50:10:38.5:1.5. C57BL/6 female mice (6-8 weeks, n=4) were dosed at 1 mg/kg intravenously. At 24 hours, the spleen from the mice were collected for flow cytometry analysis, tested for weight loss and measured for serum alanine aminotransferase (ALT) after blood collection. mOX40L expression was measured in splenic T cells.

How did the “mOX40L transfection in splenic immune cells” value [1] turn out when CCCCCCCCCCCCC(O)CN(CCCO)CCCCCCCC(=O)OC(CCCCCCCC)CCCCCCCC (centres unmarked) [Lipid 1 of Table 10e, heptadecan-9-yl 8-((3-hydroxypropyl)(2-hydroxytetradecyl)amino)octanoate] was run?
Its value is “comparable or higher levels of mOX40L transfection”.

And the “mOX40L expression in splenic T cells” value (splenic T cells)?
Its value is “resulted in expression of mOX40L in splenic T cells”.
